Assay results published in patent US9375436B2, “Androgen treatment in females” (priority 2004, dated 2016).

Experiments:
Type in all cases: in vivo, human
[1] = system: women with diminished ovarian reserve (DOR); assay: IVF cycle and PGD outcomes in DHEA-treated women with DOR (Example 4)
From the text: All the IVF cycles performed at the Center for Human Reproduction (CHR) in New York, N.Y., between 2004 and 2006 for cycles performed in women with a diagnosis of DOR were retroactively reviewed. The study population, involving 27 IVF cycles, was selected amongst those cycles which, in addition, had undergone preimplantation genetic diagnosis (PGD).
The diagnosis of DOR was made based on previously reported abnormally high, age stratified baseline FSH levels. In practical terms, this meant that a diagnosis of DOR was reached if baseline FSH levels exceeded the 95% confidence interval of age appropriate levels, independent of prior IVF retrievals and/or oocyte numbers. At, or above age 43, all patients were considered to suffer from DOR, independent of baseline FSH level.
If under age 40, DHEA was given for up to four months prior to IVF. Women of older age received DHEA, if possible, for at least two months.
For the purpose of this analysis, a patient had to be for at least one month (30 days) on DHEA supplementation in order for the IVF cycle to be considered amongst DHEA-treated cycles. All other DOR patients were considered to have received no DHEA treatment. Following this definition, 19 DOR patients had received no DHEA supplementation, and eight had.
All women with DOR, independent of DHEA supplementation, were stimulated with identical protocols, as previously reported in detail elsewhere. In short, they, without exception, received a microdose agonist protocol with maximal goandotropin stimulation of 600 IU to 750 IU daily, with preponderance of FSH, and a smaller daily amount of human menopausal gonadotropin (hMG).
PGD was performed in routine fashion, as also previously described in detail, and involved the analysis of chromosomes X, Y, 13, 16, 18, 21 and 22 by fluorescence in situ hybridization (FISH) on day three after fertilization. Embryo transfer occurred on day five after fertilization.
Patients were represented by only one cycle outcome in each group. If patients had undergone more than one cycle, either with, or without, DHEA supplementation, only their latest cycle was included in the analysis. Three patients underwent both a pre-DHEA and a post-DHEA cycle and in those cases both cycles were included in the analysis.
Statistical analysis was performed using SPSS for windows, standard version 10.0.7. Data are presented as mean±one standard deviation, unless otherwise noted, and statistical differences between the two study groups were tested by Chi-square and (two-sided) Fisher's Exact Test, where applicable, with significance being defined as p<0.05.

[2] = Case report: DHEA substitution in probable 17,20-desmolase deficiency (Patient B, Example 5); conditions: human, in vivo, oral, normal (130-980), read-out: DHEA level
Description: In a further study, a case of probable 17, 20-desmolase deficiency, resulting in abnormally low estradiol, DHEA, androstenedione and testosterone levels, is presented in a person with a clinical history of, initially, unexplained infertility and, later, prematurely aging ovaries.
In July of 2003, the patient was started on 25 mg daily of micronized DHEA. After five weeks of treatment, DHEA, DHEA-S and androstenedione levels had normalized into mid-ranges. (Even though androstenedione is partially produced through the activity of 17,20-desmolase from 17-hydroxyprogesterone, part is also derived from DHEA through the activity of 3-beta hydroxysteroid dehydrogenase [Speroff et al., 1999a]. The normalization of androstenedione, after DHEA administration, therefore, also speaks for an underlying 17,20-desmolase defect, and not a 3-beta hydroxysteroid dehydrogenase deficiency.) In the third and fourth month, following the start of DHEA supplementation, the patient ovulated spontaneously with estradiol levels of 268 and 223 pg/ml (Table 2), respectively, measured on the day of LH surge.
On Jan. 28, 2004, and after DHEA therapy of approximately six months, a fourth IVF cycle was initiated. Their baseline FSH level in that cycle was 9.6 mIU/ml, estradiol 56 pg/ml. Stimulation took place with 300 IU of recombinant FSH (without hMG) and with an agonist flare protocol. […] A triplet pregnancy was established with heart beats. Two, out of the three fetuses lost heart beat spontaneously, and the patient delivered by cesarean section, at term, a healthy singleton infant.

[3] = system: women with diminished ovarian reserve; assay: Gender of offspring and embryos conceived on DHEA treatment (Example 6)
Description: (§1) The treatment protocol for long-term supplementation with DHEA that may improve oocyte and embryo quantity, quality, pregnancy rates and time to conception in women with diminished ovarian reserve, involves 25 mg of micronized, pharmaceutical grade DHEA, TID will usually uniformly raise levels of unconjugated DHEA above about 350 ng/dl, and, therefore, raise baseline testosterone. Estradiol baseline levels may also be raised.
A total of 19 pregnancies were recorded with 16 singleton and 3 twin pregnancies. The medical records of all 19 women were reviewed in order to determine whether they conceived spontaneously, defined as including pregnancies conceived with intrauterine inseminations, or by IVF. If conception had occurred by IVF, it was recorded whether fertilization was spontaneous or by intracytoplasmic sperm injection (ICSI).
As a control group, seven women were selected who had undergone one IVF cycle with preimplantation genetic diagnosis (PGD), while for at least 60 days on DHEA supplementation, but had not conceived. The PGD data, defining each embryo's gender, were recorded. Statistics were performed using a binomial runs test, comparing seen distributions with an expected distribution of 50 percent, with p≦0.05 defining significance.

[4] = Level of unconjugated DHEA under routine treatment protocol; conditions: 25 mg micronized pharmaceutical grade DHEA TID
Description: Routine treatment protocol involves administering about 25 mg of micronized, pharmaceutical grade DHEA, TID, to a human to uniformly raise levels of unconjugated DHEA above 350 ng/dl and, therefore, raise baseline testosterone. In six pregnancies spontaneously conceived, the distribution between female and male offspring was equal, at three and three, respectively. In contrast, in the remaining 15 offspring, which were products of pregnancies achieved through IVF, the distribution was 12 males and 3 females (p=0.035). Amongst women undergoing IVF and PGD, 53 embryos were analyzed from 17 IVF cycles, all having undergone ICSI.
as §1

[5] = 3 women with DHEA and no-DHEA cycles, DHEA-treated cycle
[6] = DHEA-treated cycles n = 8, PGD by FISH
[7] = DHEA-treated cycles, at least one euploid embryo for transfer
[8] = 15 offspring of pregnancies achieved through IVF
[9] = 53 embryos from 17 IVF cycles, women on DHEA, all ICSI
[10] = sixteen singleton pregnancies conceived on DHEA for at least 60 days

In the case of C[C@]12CC[C@H](O)CC1=CC[C@@H]1[C@@H]2CC[C@]2(C)C(=O)CC[C@@H]12 [DHEA, Dehydroepiandrosterone], the “Aneuploid Embryos” value [1, 5] is reported as 2.0 ± 1.8, the “Oocytes ± SD” value [1, 5] is reported as 6.0 ± 4.8 and the “Total Embryos ± SD” value [1, 5] is reported as 4.0 ± 2.7. For the same molecule, the “Embryos ± SD (total number)” value ([1]; DHEA-treated cycles n = 8) was 9.1 ± 7.3, the “Oocytes ± SD” value ([1]; DHEA-treated cycles n = 8) was 10.4±7.3 and the “Peak Estradiol ± SD” value ([1]; DHEA-treated cycles n = 8, 25 mg TID at least one month) was 2310.3 ± 1108.1 pg/mL. The “% Aneuploid ± SD” value [1, 6] was 55.9 ± 37.8%, the “% Euploid ± SD” value [1, 6] was 44.1 ± 37.8% and the “n Aneuploid ± SD” value [1, 6] was 4.4 ± 3.0. For the same molecule, the “n Euploid ± SD” value [1, 6] was 2.1 ± 1.4, the “Patients with euploid embryos (%)” value [1, 7] was 100% and the “Patients with euploid embryos (n/N)” value [1, 7] was 8/8. The concentration at 5 months ([2]; 25 mg daily, December 2003, on DHEA) was 278 ng/mL, the concentration at 5 weeks ([2]; July 2003 after DHEA treatment start, 25 mg daily micronized) was 2.96 ng/mL and the female offspring [3, 8] was 3. For the same molecule, the male offspring [3, 8] was 12, the “female embryos by PGD” value [3, 9] was 26 and the “male embryos by PGD” value [3, 9] was 27. For the same molecule, the “female offspring, final gender distribution” value ([3]; singletons plus twins) was 6, the “male offspring, final gender distribution” value ([3]; singletons plus twins) was 15 and the female offspring [3, 10] was 5. For the same molecule, the male offspring [3, 10] was 11 and the “levels of unconjugated DHEA” value [4] was “above 350 ng/dl”.
